Experimental data: PubChem BioAssay (NCI)
Several values for one entry are separate records, joined by “and”; a condition that tells them apart may be missing. Equal values may be shown once.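 These data come from cells grown in 96-well plates and exposed to compound for 48 hours at five concentrations. The concentration for 50% growth inhibition is given as GI50. Definition used: TGI = concentration required for complete inhibition of growth.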

Tested on: MDA-MB-468 breast
Assay: NCI-60 cell line screen, 48 h

SMILES | GI50 | TGI
CC[C@@]12C=CCN3CC[C@]4(c5cc(NC(=O)COc6cc(OCC(=O)Nc7cc8c(cc7OC)N(C)[C@H]7[C@@](O)(C(=O)OC)[C@H](OC(C)=O)[C@]9(CC)C=CCN%10CC[C@]87[C@@H]%109)cc7oc(-c8ccccc8)cc(=O)c67)c(OC)cc5N(C)[C@@H]4[C@](O)(C(=O)OC)[C@H]1OC(C)=O)[C@H]32 | 2250 nM | 8870 nM
CCCCCCNC(=O)n1cc(F)c(=O)[nH]c1=O | 10000 nM | 26300 nM
CNCCNc1nc2ccccc2c2c(=O)c3cc(OC)ccc3sc12 | 1490 nM | 3030 nM
CNCCNc1nc2ccccc2c2c(=O)c3cc(F)ccc3sc12 | 1700 nM | 3460 nM
CC[C@]1(O)C[C@@H]2CN(CCc3c([nH]c4ccccc34)[C@@](C(=O)OC)(c3cc4c(cc3OC)N(C)[C@H]3[C@@](O)(C(N)=O)[C@H](O)[C@]5(CC)[C@@H]6C[C@@H]6CN6CC[C@]43[C@@H]65)C2)C1 | < 3.33 nM | 262 nM
COc1ccc(/C=C\c2cc(OC)c(OC)c(OC)c2)c(NS(=O)(=O)c2ccc(Cl)cc2)c1O | 36.7 nM | 15000 nM
CC(=O)c1cccc(-c2cccc(-c3ccn(CCN4CCOCC4)n3)c2)c1 | 15200 nM | > 20000 nM
Cc1cc2nc(-c3c(N)ncc(C#N)c3-c3ccc(Cl)cc3)[nH]c2cc1C | 12400 nM | 51500 nM
COc1cc(/C=C2\CN(C(=O)CCN3CCC(=NO)CC3)C/C(=C\c3cc(OC)c(OC)c(OC)c3)C2=O)cc(OC)c1OC | 342 nM | 1270 nM
Clc1ccc2c(c1)C(N1CCNCC1)=Nc1ccccc1O2 | 1220 nM | 2480 nM
COc1ccc(NC(=O)n2nc(/C=C\c3ccc(O)c(OC)c3)cc2/C=C\c2ccc(O)c(OC)c2)cc1 | 3550 nM | 21600 nM
COc1cc2ncnc3c2cc1OCCCCCN(C)Cc1ccc(Br)cc1N3 | 46.3 nM and 39.3 nM | 400 nM and 453 nM
COC(=O)[C@H]1[C@H]2C[C@@H]3c4[nH]c5cc(OC)ccc5c4CCN3C[C@H]2C[C@@H](OC(=O)/C=C/c2cc(OC)c(OC)c(OC)c2)[C@@H]1OC | 3270 nM | 11600 nM
Oc1c(CN2CCCC2)cc(CSCc2ccccc2)c2cccnc12 | 1200 nM | 3240 nM
COc1cc2c(c(OC)c1OC)-c1ccc(O)c(=O)cc1[C@@H](NC(C)=O)CC2 | 4110 nM | 27500 nM
CCOC(=O)Nc1nc2cc(OCC)ccc2s1 | 2620 nM | > 100000 nM
CC1(C)[C@@H](OC(N)=O)C=C[C@]2(CO)[C@H]3CC[C@]4(C)[C@@H](c5ccc(=O)oc5)[C@@H](Cl)C[C@]4(O)C3=CC[C@@H]12 | 14.9 nM | 67.4 nM
CC[C@H](Nc1nc(N)nc(C2CC2)c1C#N)c1nc2cccc(NCc3ccc(C(=O)NO)cc3)c2c(=O)n1-c1ccccc1 | 1730 nM | 4870 nM

SMILES | GI50 | TGI
CC(C)(C)n1cc(-c2ccnc(NCCCNS(=O)(=O)c3ccc(Br)cc3)c2)c(-c2cccc(O)c2)n1 | 2100 nM | 4800 nM
C[C@]12CC[C@@H](OC(=O)N(CCCl)N=O)C[C@@H]1CC[C@@H]1[C@@H]2CC[C@]2(C)C(=O)CC[C@@H]12 | 867 nM | 12300 nM
NC(=O)c1c(NC(=O)c2ccccc2C(F)(F)F)sc2c1CCC(=O)C2 | 2250 nM | 6090 nM
CC(=O)c1cc(-c2ccccc2N)n(-c2ccc3c(c2)OCO3)c1C | 50.7 nM | > 72100 nM
CCCCCCNC(=O)Oc1ccc(/C(=C(/C)Cc2ccc(OC)cc2)c2ccc(OCCN(C)C)cc2)cc1 | 5400 nM | 10600 nM
CCCCN(CCCC)CCc1c(C)cc(C)c(CCN(CCCC)CCCC)c1O | 1830 nM | 5510 nM
Cc1cnc(Nc2ccc(OCCN3CCCC3)cc2)nc1Nc1cccc(S(=O)(=O)NC(C)(C)C)c1 | 74.1 nM and 483 nM | 792 nM and 3110 nM
Cn1cc(C2=C(c3cn(C)c4cc(N)ccc34)C(=O)NC2=O)c2ccccc21 | 1560 nM | 7970 nM
C[PH+](c1nc2ccccc2nc1[PH+](C)C(C)(C)C)C(C)(C)C.C[PH+](c1nc2ccccc2nc1[PH+](C)C(C)(C)C)C(C)(C)C.[Au+].[Cl-] (centres undefined) | 24.8 nM | 90.4 nM
COc1ccc([C@@H](O)c2cc(-c3ncnc4cc(N5CCOCC5)ccc34)c(F)cc2Cl)nn1 | 1690 nM | 8260 nM
CCN1C(=O)N(CC)C2SC(N/N=C/c3ccc(F)cc3)=NC21 (centres undefined) | 400 nM | –
N=c1ccc2nc3c(cc(N)c4ccccc43)oc-2c1 | 86.5 nM | 423 nM
CCCCNC(=O)Oc1ccc(/C(=C(/CC)Cc2ccccc2)c2ccc(OCCN3CCCCCC3)cc2)cc1 | 21500 nM | 46900 nM
C/C(=C(/c1ccc(O)cc1)c1ccc(Cl)cc1)c1ccccc1 | 601 nM | 2020 nM
CC12CC=CCC1CCC1C2CCC2(C)C(c3ccc(=O)oc3)CCC12O (centres undefined) | 276 nM | 858 nM
Oc1c(Cl)cc(Cl)cc1Sc1cc(Cl)cc(Cl)c1O | 2810 nM and 2590 nM | 8850 nM and 7830 nM
CC(C(=O)O)c1ccc(-c2ccccc2)c(F)c1 (centres undefined) | > 100000 nM | > 100000 nM
